Test results: publication PMC10004090, “Novel Arylsulfonylhydrazones as Breast Anticancer Agents Discovered by Quantitative Structure-Activity Relationships” (Molecules, 2023)
Read-outs that look alike come from different tables or passages of the source.

How the values were obtained:
MCF-7 [1] = conditions: ligand efficiency LE = pIC50/N; training set 3a–o and cisplatin; cited from earlier work
MDA-MB-468 = conditions: ligand efficiency LE = pIC50/N; training set 5a–k and doxorubicin; cited from earlier work
MCF-7 [2] = conditions: ligand efficiency LE = pIC50/N; training set 5a–k and doxorubicin; cited from earlier work
MCF-7 [3] = test: MTT cytotoxicity test on MCF-7 cell line; type: cell-based, human; conditions: for IC50: MTT, 72 h; for MCF-7 SI: selectivity index = IC50 on Neuro-2a/IC50 on MCF-7
Method: (§1) The anticancer activity of the novel arylsulfonylhydrazones was tested on two BC cell lines: MCF-7 and MDA-MB-231. The cell line MCF-7 originates from human breast adenocarcinoma and expresses estrogen receptor alpha (ER-α), while the cell line MDA-MB-231 represents TNBC adenocarcinoma and lacks any receptor [40]. To test the cytotoxicity of the compounds on healthy cells, they were incubated within Neuro-2a cells, which are mouse neuroblasts isolated from brain tissue.
(§2) The in vitro antineoplastic activity of the newly synthesized compounds was evaluated against human BC cell lines of different molecular types: the triple negative MDA-MB-231 cell line and the ER/PR/Her2 positive variant MCF-7, as well as against mouse neuroblast cells, Neuro-2a. All cell lines were purchased from the German Collection of Microorganisms and Cell Cultures (DSMZ GmbH, Braunschweig, Germany) and cultivated according to supplier’s instructions. Cells were cultured in an RPMI 1640 growth medium supplemented with 10% fetal bovine serum (FBS) and 5% L-glutamine, and incubated under standard conditions of 37 °C and 5% humidified CO2 atmosphere.
(§3) The cytostatic activity of the experimental compounds was investigated using an established methodology for assessing cell viability known as the Mosmann MTT method. The assay is colorimetric and measures the activity of mitochondrial enzymes by reducing the yellow dye MTT (3-(4,5-dimethylthiazol-2-yl)-2,5-diphenyltetrazolium bromide) to violet formazan crystals. Exponential-phased cells were harvested and seeded (100 μL/well) in 96-well plates at 1.5 × 10^5 density and incubated for 24 h. Cell cultures were treated and exposed to various concentrations (200–6.25 μM) of the tested compounds for 72 h, following which cell survival was quantified as percentage (%) relative to untreated control (100% cell viability).
(§4) Experimental data were processed using nonlinear regression analysis in the GraphPad Prism® software program. Semi-logarithmic “dose-response” curves were plotted and half-inhibitory concentrations (IC50) of the screened compounds were calculated for each of the tested tumor cell lines.

MDA-MB-231 = test: MTT cytotoxicity test on MDA-MB-231 cell line; type: cell-based, human; conditions: for LE MDA-MB-231 Exp: LE = pIC50/N from MTT IC50, 72 h; for IC50: MTT, 72 h; for MDA-MB-231 SI: selectivity index = IC50 on Neuro-2a/IC50 on MDA-MB-231
Method: as §1, §2, §3, §4

Neuro-2a = test: MTT cytotoxicity test on Neuro-2a cells (healthy-cell control); type: cell-based, mouse; conditions: for IC50: MTT, 72 h, healthy cells
Method: as §1, §2, §3, §4

Compound: COc1cccc(/C=N\NS(=O)(=O)c2ccc(C)cc2)c1Cl [Compound 3k]
- LE MCF-7 (MCF-7 [1]): 0.197

Compound: Cc1ccc(S(=O)(=O)N/N=C\c2c(C)cccc2Cl)cc1 [Compound 3l]
- LE MCF-7 (MCF-7 [1]): 0.180

Compound: Cc1ccc(S(=O)(=O)N/N=C\c2cc(Br)cs2)cc1 [Compound 3b]
- LE MCF-7 (MCF-7 [1]): 0.203

Compound: Cc1ccc(S(=O)(=O)N/N=C\c2cn(CCN3CCOCC3)c3ccccc23)cc1 [Compound 5b]
- LE MDA-MB-468 (MDA-MB-468): 0.146
- LE MCF-7 (MCF-7 [2]): 0.140

Compound: COc1cc(/C=N\NS(=O)(=O)c2ccc(C)cc2)ccc1F [Compound 3f]
- LE MCF-7 (MCF-7 [1]): 0.207

Compound: COc1cccc2c1C(=O)c1c(O)c3c(c(O)c1C2=O)C[C@@](O)(C(=O)CO)C[C@@H]3O[C@H]1C[C@H](N)[C@H](O)[C@H](C)O1 [Doxorubicin]
- LE MDA-MB-468 (MDA-MB-468): 0.182
- LE MCF-7 (MCF-7 [2]): 0.185

Compound: O=S(=O)(N/N=C\c1cn(CCN2CCOCC2)c2ccccc12)c1ccc(F)cc1 [Compound 5d]
- LE MDA-MB-468 (MDA-MB-468): 0.161
- LE MCF-7 (MCF-7 [2]): 0.150

Compound: Cc1ccc(S(=O)(=O)N/N=C\c2ccc(F)cc2C(F)(F)F)cc1 [Compound 3j]
- LE MCF-7 (MCF-7 [1]): 0.148

Compound: Cc1ccc(S(=O)(=O)N/N=C\c2c[nH]nc2-c2ccccc2)cc1 [Compound 3h]
- LE MCF-7 (MCF-7 [1]): 0.141

Compound: Cc1ccc(S(=O)(=O)N/N=C\c2cccn2C)cc1 [Compound 3n]
- LE MCF-7 (MCF-7 [1]): 0.207

Compound: Cc1ccc(S(=O)(=O)N/N=C\c2ccc(F)c(Oc3ccccc3)c2)cc1 [Compound 3d]
- LE MCF-7 (MCF-7 [1]): 0.121

Compound: N.N.[Cl][Pt][Cl] [Cisplatin, reference compound]
- IC50 (MCF-7 [3]): 50.3 ± 6.5 µM
- LE MDA-MB-231 Exp (MDA-MB-231): 0.840
- IC50 (MDA-MB-231): 63.4 ± 7.2 µM
- LE MCF-7 (MCF-7 [1]): 0.931

Compound: N’-[(E)-(5-methoxy-1-methyl-1H-indol-3-yl)methylidene]benzenesulfonohydrazide [Compound 1i]
- Neuro-2a LE (Neuro-2a; LE = pIC50/N): 0.161
- IC50 (Neuro-2a): 135 ± 10.9 µM
- LE MCF-7 Exp (MCF-7 [3]; LE = pIC50/N from MTT IC50, 72 h): 0.158
- IC50 (MCF-7 [3]): 165 ± 8.6 µM
- MCF-7 SI (MCF-7 [3]): 0.818
- LE MDA-MB-231 Exp (MDA-MB-231): 0.178
- IC50 (MDA-MB-231): 54.8 ± 7.4 µM
- MDA-MB-231 SI (MDA-MB-231): 2.462

Compound: Cc1ccc(S(=O)(=O)N/N=C\c2cc(-c3ccccc3)cs2)cc1 [Compound 3c]
- LE MCF-7 (MCF-7 [1]): 0.189

Compound: O=S(=O)(N/N=C\c1cn(CCN2CCOCC2)c2ccccc12)c1ccccc1 [Compound 5c]
- LE MDA-MB-468 (MDA-MB-468): 0.149
- LE MCF-7 (MCF-7 [2]): 0.143

Compound: COc1ccc(/C=N/NS(=O)(=O)c2ccc(C)cc2)cc1OC [Compound 1g, N’-[(E)-(3,4-dimethoxyphenyl)methylidene]-4-methylbenzenesulfonohydrazide]
- IC50 (MCF-7 [3]; Homo sapiens, MCF7): 56.1 ± 8.4 µM
- MCF-7 SI (MCF-7 [3]): 2.415
- IC50 (MDA-MB-231; Homo sapiens, MDA-MB-231): > 500 µM

Compound: COc1ccc2[nH]cc(/C=N/NS(=O)(=O)c3ccc(C)cc3)c2c1 [Compound 1b, N’-[(E)-(5-methoxy-1H-indol-3-yl)methylidene]-4-methylbenzenesulfonohydrazide]
- IC50 (Neuro-2a; Mus musculus, N2a): 4 ± 0.4 µM
- melting point: 201 to 202 °C
- IC50 (MCF-7 [3]; Homo sapiens, MCF7, 72 h): < 1 µM
- IC50 (MCF-7 [3]): 0.8 ± 0.3 µM
- MCF-7 SI (MCF-7 [3]): 5.000
- IC50 (MDA-MB-231; Homo sapiens, MDA-MB-231, 72 h): 8.5 ± 2.1 µM

Compound: O=S(=O)(N/N=C\c1cn(CCN2CCOCC2)c2ccccc12)c1ccc(Cl)cc1 [Compound 5f]
- LE MDA-MB-468 (MDA-MB-468): 0.170
- LE MCF-7 (MCF-7 [2]): 0.163

Compound: O=S(=O)(N/N=C/c1ccc(Cl)cc1)c1ccccc1 [Compound 1h, N’-[(E)-(4-chlorophenyl)methylidene]benzenesulfonohydrazide]
- IC50 (MCF-7 [3]; Homo sapiens, MCF7): 157 ± 11.2 µM
- MCF-7 SI (MCF-7 [3]): 0.747
- IC50 (MDA-MB-231; Homo sapiens, MDA-MB-231): 63.1 ± 6.9 µM
- MDA-MB-231 SI (MDA-MB-231): 1.861

Compound: COc1ccc(/C=N\NS(=O)(=O)c2ccc(C)cc2)cc1[N+](=O)[O-] [Compound 3g]
- LE MCF-7 (MCF-7 [1]): 0.143

Compound: COc1ccc(Br)cc1/C=N\NS(=O)(=O)c1ccc(C)cc1 [Compound 3i]
- LE MCF-7 (MCF-7 [1]): 0.170

Compound: Cc1ccc(S(=O)(=O)N/N=C\c2ccc3c(c2)OC(F)(F)O3)cc1 [Compound 3a]
- LE MCF-7 (MCF-7 [1]): 0.174

Compound: Cc1ccc(S(=O)(=O)N/N=C\c2ccccc2OC(F)(F)F)cc1 [Compound 3o]
- LE MCF-7 (MCF-7 [1]): 0.166

Compound: COc1ccc2[nH]cc(/C=N\NS(=O)(=O)c3ccccc3)c2c1 [Compound 1a, N’-[(Z)-(5-methoxy-1H-indol-3-yl)methylidene]benzenesulfonohydrazide]
- IC50 (Neuro-2a; Mus musculus, N2a): 5.2 ± 0.9 µM
- IC50 (MCF-7 [3]; Homo sapiens, MCF7, 72 h): < 1 µM
- IC50 (MCF-7 [3]): 0.6 ± 0.2 µM
- IC50 (MDA-MB-231; Homo sapiens, MDA-MB-231, 72 h): 3.1 ± 0.7 µM

Compound: O=[N+]([O-])c1ccc(S(=O)(=O)N/N=C\c2cn(CCN3CCOCC3)c3ccccc23)cc1 [Compound 5e]
- LE MDA-MB-468 (MDA-MB-468): 0.138
- LE MCF-7 (MCF-7 [2]): 0.128

Compound: Cc1ccc(S(=O)(=O)N/N=C\c2cccc(Br)n2)cc1 [Compound 3m]
- LE MCF-7 (MCF-7 [1]): 0.176

Compound: COc1ccc(/C=N/NS(=O)(=O)c2ccccc2)cc1OC [Compound 1f, N’-[(E)-(3,4-dimethoxyphenyl)methylidene]benzenesulfonohydrazide]
- IC50 (MCF-7 [3]; Homo sapiens, MCF7): 5.97 ± 2.1 µM
- IC50 (MDA-MB-231; Homo sapiens, MDA-MB-231): 266 ± 19.7 µM
- MDA-MB-231 SI (MDA-MB-231): 0.410

Compound: O=S(=O)(N/N=C\c1cn(CCN2CCOCC2)c2ccccc12)c1ccc2ccccc2c1 [Compound 5h]
- LE MDA-MB-468 (MDA-MB-468): 0.110
- LE MCF-7 (MCF-7 [2]): 0.116

Compound: Cc1ccc(S(=O)(=O)N/N=C\c2cccc(C(F)(F)F)c2Cl)cc1 [Compound 3e]
- LE MCF-7 (MCF-7 [1]): 0.148

Compound: O=S(=O)(N/N=C/c1c[nH]c2ccc(Cl)cc12)c1ccccc1 [Compound 1e, N’-[(E)-(5-chloro-1H-indol-3-yl)methylidene]benzenesulfonohydrazide]
- IC50 (Neuro-2a; Mus musculus, N2a): 6.5 ± 1.1 µM
- IC50 (MCF-7 [3]; Homo sapiens, MCF7, 72 h): < 1 µM
- IC50 (MCF-7 [3]): 0.5 ± 0.1 µM
- MCF-7 SI (MCF-7 [3]): 13
- IC50 (MDA-MB-231; Homo sapiens, MDA-MB-231, 72 h): < 1 µM
- IC50 (MDA-MB-231): 0.9 ± 0.2 µM

Compound: CC(=O)n1cc(/C=N/NS(=O)(=O)c2ccc(C)cc2)c2ccccc21 [Compound 1d, N’-[(E)-(1-acetyl-1H-indol-3-yl)methylidene]-4-methylbenzenesulfonohydrazide]
- IC50 (Neuro-2a; Mus musculus, N2a): 82.8 ± 8.1 µM
- IC50 (MCF-7 [3]; Homo sapiens, MCF7, 72 h): 1.8 ± 0.6 µM
- MCF-7 SI (MCF-7 [3]): 46
- IC50 (MDA-MB-231; Homo sapiens, MDA-MB-231, 72 h): 65.1 ± 6.1 µM
- MDA-MB-231 SI (MDA-MB-231): 1.272

Compound: COc1ccc(S(=O)(=O)N/N=C\c2cn(CCN3CCOCC3)c3ccccc23)cc1 [Compound 5a]
- LE MDA-MB-468 (MDA-MB-468): 0.141
- LE MCF-7 (MCF-7 [2]): 0.136

Compound: CC(=O)n1cc(/C=N/NS(=O)(=O)c2ccccc2)c2ccccc21 [Compound 1c, N’-[(E)-(1-acetyl-1H-indol-3-yl)methylidene]benzenesulfonohydrazide]
- IC50 (Neuro-2a; Mus musculus, N2a): 36.2 ± 4.3 µM
- melting point: 209 to 210 °C
- IC50 (MCF-7 [3]; Homo sapiens, MCF7, 72 h): < 1 µM
- IC50 (MCF-7 [3]): 0.9 ± 0.4 µM
- IC50 (MDA-MB-231; Homo sapiens, MDA-MB-231, 72 h): 19.2 ± 3.4 µM
